Data: patent US9974771B2 (priority 2016, dated 2018)
Like-named read-outs stand apart in the source and are kept apart here.

What was measured:
[1] = system: PrP^Sc in Atg5-KO ScN2a cells (strain 22L); format: cell-based, mouse
LC3-II [2] = format: cell-based, mouse
[3] = system: PrP^Sc in persistently prion (strain 22L) infected ScN2a cells; format: cell-based, mouse
[4] = system: PrP^Sc in ScMEFs infected with prion strains 22L, Me7 or RML; format: cell-based, mouse; conditions: AR-12 3 μM, 72 hours, ScMEF strains 22L, FIG. 4A
[5] = system: PrP^Sc in persistently prion (strain 22L) infected ScCAD5 cells; format: cell-based, mouse; conditions: AR-12 1-5 μM, 72 hours, ScCAD5 22L; FIG. 3A
LC3-II [6] = format: cell-based, mouse; remark: listed apart in the source

| Compound | reduction of PrP^Sc (+PK) [1] | LC3-II induction, comparison of cell lines (LC3-II [2]) | LC3-II levels (LC3-II [2]) | reduction of PrP^Sc (+PK) ([3]; AR-14 2 μM, 72 hours, wild-type ScN2a cells, FIG. 8C) | reduction of PrP^Sc (+PK) ([3]; AR-14 at a concentration of 2, 3 days (72 hours), ScN2a 22L, FIG. 5A) | concentration at which already effective in reducing PrP^Sc ([3]; AR-14 tested at 0.5, 0.75 and 1.0 μM, 72 hours, ScN2a 22L, FIG. 5C) | XTT toxicity at concentrations used (ScN2a cells) | XTT toxicity at concentrations used (ScMEF cells) | PrP^Sc (+PK) [4] | XTT toxicity at concentrations used (ScCAD5 cells) | PrP^Sc levels (+PK) [5] | reduction of PrP^Sc (+PK) ([3]; AR-12 3 μM, 3 days (72 hours), ScN2a 22L, vs DMSO, FIG. 2A) | reduction of PrP^Sc (+PK) ([3]; AR-12 3 μM, 72 hours, wild-type ScN2a cells, FIG. 8B) | LC3-II induction (LC3-II [6]) |
| --- | --- | --- | --- | --- | --- | --- | --- | --- | --- | --- | --- | --- | --- | --- |
| NCCCC[C@H](N)C(=O)Nc1ccc(-n2nc(C(F)(F)F)cc2-c2ccc3c(ccc4ccccc43)c2)cc1 [AR-14] | about 50% | lowest induction was found in CAD5 cells | time dependent and pronounced increase in LC3-II levels | 100% | 100% | 0.75 µM | non-toxic concentrations | – | – | – | – | – | – | – |
| NCC(=O)Nc1ccc(-n2nc(C(F)(F)F)cc2-c2ccc3c(ccc4ccccc43)c2)cc1 [AR-12, 2-amino-N-(4-(5-(phenanthren-2-yl)-3-(trifluoromethyl)-1H-pyrazol-1-yl)phenyl)acetamide] | about 50% | lowest induction was found in CAD5 cells | time dependent and pronounced increase in LC3-II levels | – | – | – | non-toxic concentrations | non-toxic concentrations | strongly reduced | non-toxic concentrations | reduced, although slightly less than in ScN2a cells | 100% | ≥ 90% | about 2 fold |
| bafilomycin A1 [BA1, reference compound] | – | – | highest expression level of LC3-II | – | – | – | – | – | – | – | – | – | – | – |
